We go through 12 molecules from ChEMBL document CHEMBL1201862, “PubChem BioAssay data set” (2004).

Common to all, as to assay: growth of human tumour cells (NCI), 48 h
Test [1] has as its system OVCAR-5.
Test [2] has as its system SN12C.
For test [3], the system named is OVCAR-8.
In test [4] the test system is HCT-116.
Test [5] has as its system SNB-75.
The subject of test [6] is SK-MEL-2.
Test [7] relates to IGROV-1.
The subject of test [8] is SK-MEL-28.
Test [9] deals with LOX IMVI.
In test [10] the test system is Malme-3M.
Test [11] concerns KM12.
Test [12] has as its system OVCAR-4.
The test system of test [13] is OVCAR-3.
Test [14] relates to HOP-62.
Test [15] deals with NCI-H23.
Test [16] has as its system HCC 2998.
Test [17] relates to PC-3.
Test [18] relates to DU-145.
Test [19] has as its system MCF7.
In test [20] the test system is NCI/ADR-RES.

Each structure is given as a SMILES string.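 96-well plates; 48 h exposure; 5 concentrations. Endpoints by linear interpolation between flanking doses. Not reached: highest tested concentration assigned. Here, GI50 denotes the concentration required for 50% inhibition of growth.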 Calls of active or inactive are those of the source. Rule as the data show it: active = GI50 up to about 1.1 µM and inactive = higher.

Take `C=C1C(=O)OC2C1C(OC(=O)/C(C)=C\C)CC1(CO1)C1C(O)C=C(C)C21O` (configuration not stated): the GI50 in [1] was 19.7 µM (inactive); in [2], 3.27 µM (inactive); in test [3], 2.67 µM (inactive); in test [4] it was 1.53 µM (inactive); in test [5], 10.6 µM (inactive); in test [6], 3.72 µM (inactive). Also, the GI50 in [7] was 14.5 µM (inactive); in [8] it was 2.93 µM (inactive); in test [9], 14.4 µM (inactive); in test [10], 2.74 µM (inactive); in test [11], 11.5 µM (inactive); in [12], 7.78 µM (inactive). In addition, the GI50 is 3.77 µM (inactive) in test [13], 23.6 µM (inactive) in test [14], 7.19 µM (inactive) in test [15] and 4.63 µM (inactive) in test [16].
Turning to `CC(C)=CCC/C(C)=C/CC/C(C)=C/C1CCC(=O)C1(C)C` (configuration not stated), the GI50 in test [1] was 19.1 µM (inactive); in test [2], 16.2 µM (inactive); in [3], 19.6 µM (inactive); in test [4] it was 17 µM (inactive); in test [5], 28.5 µM (inactive); in [6], 17.4 µM (inactive). For the same molecule, the GI50 in test [7] was 19.1 µM (inactive); in test [8] it was 22.1 µM (inactive); in test [9], 15.3 µM (inactive); in [10], 18.3 µM (inactive); in [11] it was 16.3 µM (inactive); in test [12], 24.9 µM (inactive). In addition, the GI50 is 17.1 µM (inactive) in test [13], 26.5 µM (inactive) in [14], 20.3 µM (inactive) in [15] and 22.9 µM (inactive) in test [16].
For the molecule `Nc1c([N+](=O)[O-])nc(Cl)c2nncn12`, the GI50 is > 100 µM (inactive) in test [1]; > 100 µM (inactive) in test [2]; > 100 µM (inactive) in [3]; > 45 µM (inactive) in test [4]; > 23.7 µM (inactive) in test [5]; > 100 µM (inactive) in test [6]. The GI50 in test [7] is > 100 µM (inactive); in test [8] it was > 100 µM (inactive); in test [9], > 43.8 µM (inactive); in [10] it was > 100 µM (inactive); in test [11], > 100 µM (inactive); in [12] it was > 100 µM (inactive). Further, the GI50 in test [13], in test [14], in test [15] and in [16] was > 100 µM (inactive) throughout.
Regarding `CC12CC(C/C1=N/O)C(C)(C)C2` (configuration not stated), the GI50 in test [1], in test [17], in test [2], in test [18], in [3] and in test [19] was > 100 µM (inactive) each time. Besides, the GI50 in test [4], in test [5], in test [7], in test [8], in test [10] and in test [11] was > 100 µM (inactive) each time. Besides, the GI50 in test [12], in test [13], in test [14], in test [15] and in test [16] was > 100 µM (inactive) throughout.
On to `CSc1nnc(CCC(=O)Nc2c(C)cccc2C)o1`, for which the GI50 in test [1] is > 100 µM (inactive); in [2] it was > 100 µM (inactive); in [3], > 100 µM (inactive); in test [4] it was > 100 µM (inactive); in test [5] it was 91.6 µM (inactive); in [6], > 100 µM (inactive). For the same molecule, the GI50 in [7], in [8], in test [9], in [10], in [11] and in [12] was > 100 µM (inactive) each time. For the same molecule, the GI50 in test [13], in test [14], in [15] and in test [16] was > 100 µM (inactive) in each case.
For the molecule `CCCCCCC(C)CC(CCCCCC)NCCOC(=O)c1ccc([N+](=O)[O-])cc1` (configuration not stated), the GI50 is 18.5 µM (inactive) in test [1]; 10.7 µM (inactive) in [2]; 12.2 µM (inactive) in test [18]; 5.66 µM (inactive) in test [3]; 7.16 µM (inactive) in test [19]; 8.18 µM (inactive) in test [4]. Besides, the GI50 in test [5] was 16 µM (inactive); in test [6] it was 14.1 µM (inactive); in [20], 13.4 µM (inactive); in test [7], 12.3 µM (inactive); in [9] it was 4.12 µM (inactive); in [10], 11.1 µM (inactive). Further, the GI50 in [11] was 10.1 µM (inactive); in test [12], 11.5 µM (inactive); in test [14] it was 14.3 µM (inactive); in test [15], 14.6 µM (inactive); in test [16] it was 2.02 µM (inactive).
On to `CCOC(=O)c1[nH]c2nc(SC)nc(Nc3ccccc3Cl)c2c1N`, for which the GI50 is 19.6 µM (inactive) in test [1]; 15.7 µM (inactive) in test [17]; 36.2 µM (inactive) in [2]; 23.2 µM (inactive) in test [18]; 16 µM (inactive) in test [3]; 15.6 µM (inactive) in test [4]. For the same molecule, the GI50 in test [5] was 16.2 µM (inactive); in test [6] it was 29 µM (inactive); in test [20] it was 18.8 µM (inactive); in [7], 26.9 µM (inactive); in [8] it was 31.3 µM (inactive); in [9], 11.8 µM (inactive). Further, the GI50 was 24.3 µM (inactive) in [10]; 31.3 µM (inactive) in [11]; 14.6 µM (inactive) in test [12]; 20.7 µM (inactive) in [13]; 18.3 µM (inactive) in [14]; 19.2 µM (inactive) in [15]. Further, the GI50 in [16] was 27.4 µM (inactive).
In the case of `C/C=C(C)/C=C/CC(C)CCC=C(C)C` (configuration not stated), the GI50 in test [1], in [2], in test [18], in [3], in test [19] and in [4] was > 100 µM (inactive) throughout. The GI50 in test [5], in [6], in test [20], in test [7], in [8] and in test [9] was > 100 µM (inactive) throughout. Also, the GI50 in test [11] was > 100 µM (inactive); in test [12], 92.9 µM (inactive); in test [13] it was > 100 µM (inactive).
`CN1C(=O)C(=CNc2ccc(Cl)cc2Cl)C(=O)N(C)C1=O`: the GI50 in test [1] was > 100 µM (inactive); in [17], > 100 µM (inactive); in [2], > 100 µM (inactive); in test [3] it was 17.9 µM (inactive); in test [19], > 100 µM (inactive); in test [4], > 100 µM (inactive). Besides, the GI50 in test [5], in test [6], in [20], in test [7], in [9] and in test [10] was > 100 µM (inactive) in each case. The GI50 in test [11], in [12], in test [13], in test [14], in test [15] and in test [16] was > 100 µM (inactive) in each case.
For the molecule `COc1cc(/C=C2\CCC(C)c3c2nc(N)c(C#N)c3-c2cc(OC)c(OC)c(OC)c2)cc(OC)c1OC` (configuration not stated), the GI50 in test [1] is > 100 µM (inactive); in test [17], 55.1 µM (inactive); in test [2], 44.4 µM (inactive); in test [18], 55.2 µM (inactive); in test [3], 13.2 µM (inactive); in test [19] it was 29.9 µM (inactive). In addition, the GI50 in test [4] is > 100 µM (inactive); in test [5], 0.165 µM (active); in test [6], > 100 µM (inactive); in [7] it was 0.984 µM (active); in [8] it was > 100 µM (inactive); in test [9], 41.5 µM (inactive). The results for the GI50 in test [11], in test [12] and in test [14] were 51.6 µM (inactive), 31.5 µM (inactive) and > 100 µM (inactive), respectively.
Regarding `O=C(c1ccc(O)cc1)C1c2c3c(cc(O)c2C(c2ccc(O)cc2)C1c1cc(O)cc(O)c1)OC(c1ccc(O)cc1)C3c1cc2c(cc1O)OC(c1ccc(O)cc1)C2c1cc(O)cc(O)c1` (configuration not stated), the GI50 in [1], in test [2], in test [3], in [4], in [5] and in [6] was > 12.5 µM (inactive) in each case. The GI50 in [8], in test [9], in [10], in test [11], in test [12] and in test [13] was > 12.5 µM (inactive) throughout. Further, the GI50 in test [14], in test [15] and in test [16] was > 12.5 µM (inactive) each time.
Regarding `c1ccc2sc(C3(N4CCCC4)CCCCCC3)cc2c1`, the GI50 in test [1] is 11.7 µM (inactive); in test [2], 15.3 µM (inactive); in [18], 22.4 µM (inactive); in test [3] it was 17.9 µM (inactive); in test [19] it was 18.4 µM (inactive); in [4], 12.5 µM (inactive). In addition, the GI50 in [5] is 13.5 µM (inactive); in test [20], 19.7 µM (inactive); in test [7], 19.1 µM (inactive); in test [8] it was 20.4 µM (inactive); in [9], 14.7 µM (inactive); in [11] it was 12.9 µM (inactive). In addition, the GI50 in test [12] was 13.4 µM (inactive); in test [13], 14.3 µM (inactive); in test [14] it was 18.5 µM (inactive); in test [15], 18 µM (inactive); in test [16], 13.6 µM (inactive).
